Measured values from patent publication US20220348981A1, “ASSAY OF ARYLSULFATASE A ENZYMATIC ACTIVITY IN DRIED BLOOD SPOTS BY MASS SPECTROMETRY AND FLUOROMETRY” (University of Washington, priority 2019, published 2022).

How the values were obtained:
arylsulfatase A (ARSA) [1] = target: T1, arylsulfatase A (ARSA) (Homo sapiens, UniProt P15289); test: ARSA assay with a 3 mm DBS punch, no purification; type: biochemical; conditions: 5 mM added to the assay buffer; data not shown
T1 construct: the assay is able to detect ARSA enzymatic activity in lysates of mixed leukocytes (mainly lymphocytes) by LC-MS/MS; endogenous in cells; host or cells: mixed leukocytes (mainly lymphocytes) prepared from K2EDTA venous blood; lysate, 2 µg protein per assay
T1 sequence (P15289 19-507): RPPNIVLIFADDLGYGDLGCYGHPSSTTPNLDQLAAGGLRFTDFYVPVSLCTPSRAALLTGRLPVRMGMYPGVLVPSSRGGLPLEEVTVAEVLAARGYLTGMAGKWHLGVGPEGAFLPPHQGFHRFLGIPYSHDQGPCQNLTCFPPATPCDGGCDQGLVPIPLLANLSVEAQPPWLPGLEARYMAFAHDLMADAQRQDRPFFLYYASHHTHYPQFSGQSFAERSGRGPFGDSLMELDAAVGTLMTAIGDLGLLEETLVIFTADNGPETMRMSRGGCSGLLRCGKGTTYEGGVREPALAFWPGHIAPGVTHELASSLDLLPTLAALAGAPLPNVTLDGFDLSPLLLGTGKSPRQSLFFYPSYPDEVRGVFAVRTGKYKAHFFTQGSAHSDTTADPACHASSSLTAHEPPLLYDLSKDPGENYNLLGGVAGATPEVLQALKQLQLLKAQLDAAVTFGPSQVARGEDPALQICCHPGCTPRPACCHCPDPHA
Experimental: Application of ARSA assay to DBS extracts purified by immune-precipitation. Initial attempts to detect ARSA enzymatic activity in DBS were unsuccessful. When the leukocyte lysate was substituted with a 3 mm DBS punch in the ARSA assay, no ARSA activity could be detected. Moreover, no ARSA activity was observed when leukocyte lysate was co-incubated with a DBS punch, whereas activity was seen when the leukocyte was incubated with a filter paper punch lacking blood matrix (data not shown). This indicated the presence of some ARSA inhibitor(s) in whole blood.

arylsulfatase A (ARSA) [2] = target: T1, arylsulfatase A (ARSA); test: ARSA leukocyte assay by LC-MS/MS with deuterated sulfatide substrate; type: biochemical; conditions: for effect on ARSA activity: additive in assay buffer, increasing amount (Ce(acetate)3 0 to 20 mM)
Experimental: Development of a new ARSA leukocyte assay. Recently, Han et al. reported the detection of ARSA enzymatic activity where a natural substrate, C18:0-sulfatide, was incubated with leukocyte lysate in buffer containing sodium taurodeoxycholate as detergent (Han, M.; Jun, S. H.; Song, S. H.; Park, H. D.; Park, K. U.; Song, J., Ultra-performance liquid chromatography-tandem mass spectrometry measurement of leukocyte arylsulfatase A activity using a natural substrate. Ann Lab Med 2015, 35 (1), 165-8). As described herein, in the present assay, the deuterium labeled sulfatide d3-C18:0-sulfatide was used as substrate so that the enzymatic product (d3-C18:0-galactosyl-ceramide) also carried the three deuterium labels, and could be selectively quantified without being interfered by the endogenous galactosyl-ceramide. Using this approach, the assay is able to detect ARSA enzymatic activity in lysates of mixed leukocytes (mainly lymphocytes) by LC-MS/MS. […] If leukocyte lysate was omitted, no discernable product peak was observed above the baseline noise (data not shown). […] Because detergent was present in the assay buffer, MLD patients that are due to dysfunctional Saposin B protein will not be detected with this assay, but these variants are very rare among MLD patients (less than 5%). In the Han et al. report, MnCl2 was added to the buffer at a concentration of 33 mM. […] Barium or cerium […] are often used to assay sulfatases in complex matrices to sequester inorganic sulfate and phosphate ions, which are potent inhibitors of sulfatases. […] The ARSA activity was pH dependent with an optimal pH at 4.5. […] The pH optimum of ARSA and the KM value found agreed with the previous reports. […]
Enzymatic activity calculation. ARSA activity in leukocyte (nmol/h/mg protein) was calculated by multiplying the ion ratio of ARSA product to ARSA internal standard (blank subtracted) by the nanomoles of internal standard added to the assay, then dividing by the incubation time (h) and the amount of leukocyte protein used (mg). […]

Row | rescue of ARSA activity in DBS (arylsulfatase A (ARSA) [1]) | effect on ARSA activity (arylsulfatase A (ARSA) [2]) | Km (arylsulfatase A (ARSA) [2]; leukocyte lysate, substrate concentration varied, hyperbolic kinetics, pH 4.5) | Compound
1 | did not rescue ARSA activity | decrease |  | CC(=O)[O-].CC(=O)[O-].CC(=O)[O-].[Ce+3] [Ce(acetate)3]
2 |  | decrease with increasing amount |  | [Cl][Mn][Cl] [MnCl2]
3 | did not rescue ARSA activity |  |  | CC(=O)[O-].CC(=O)[O-].[Pd+2] [Pd(Acetate)2]
4 |  |  | 83 µM | d3-C18:0-sulfatide
